In patent US20240025852A1, “T-TYPE CALCIUM CHANNEL MODULATORS AND METHODS OF USE THEREOF” (PRAXIS PRECISION MEDICINES, INC., priority 2020, published 2024):

Tests used:
[1] = molecular target: T1, Recombinant CYP3A4 Supersomes (Homo sapiens, UniProt P08684); assay: Recombinant CYP3A4 Clearance Assay; type: in vitro ADME; details: for % of Control (intrinsic clearance relative to the control compound): observed CLint divided by average CLint of undeuterated control compound; for Half-Life / CLint: recombinant CYP3A4 50 pmol/mL, 1 μM substrate, NADPH; for Half-Life: 0-120 minutes; for CLint: control = geometric mean of 3 replicates
T1 construct: purchased
Protocol: The CYP3A4 Clearance Assay was performed to determine the stability of deuterated compounds described herein and calculate changes in clearance relative to the control compound (undeuterated compound) that has the following structure:
Recombinant CYP3A4 Supersomes were prepared in 100 mM potassium phosphate buffer (50 pmol/mL final recombinase) and 80 μL aliquots were delivered per well to 96-well reaction plates containing 10 μL/well stock working solution containing substrate at 10× final concentration in 0.1:9.9:90 DMSO:ACN:100 mM phosphate buffer. Final substrate concentration during incubation was 1 μM. Reaction mixtures were pre-incubated at 37° C. for 10 minutes, prior to addition of 10 μL/well of NADPH regenerating system to initiate the reaction (β-Nicotinamide adenine dinucleotide phosphate) or 100 mM phosphate as a buffer control.
Clearance assessments were performed for test compounds in singlicate except for the control compound, which was tested in triplicate. Incubations were maintained at 37° C. for 0, 5, 15, 30, 45, 60, 90, and 120 minutes (or 0 and 120 minutes for buffer control). The reactions were terminated with 3× volume of cold (4° C.) acetonitrile (ACN) containing 200 ng/mL tolbutamide and 200 ng/mL labetalol as internal standards (IS). The crash plates were centrifuged at 4000 rpm at 4° C. for 20 min to precipitate residual protein. Following protein precipitation, sample supernatants were harvested and 3× volume of HPLC grade water was added to each sample for chromatography purposes. Plates were sealed and shaken for 10 minutes prior to LC-MS/MS analysis using generic LCMS/MS conditions.
(§1) LC-MS/MS chromatograms were analyzed by peak area ratio (test article peak area/internal standard peak area) and natural log transformed, and plotted against time. The slope of the line was determined to calculate elimination rate constant. Subsequently, half-life (t1/2) and intrinsic clearance (CLint) were calculated using the following equations: […]
Average intrinsic clearance of the control compound was determined by taking the geometric mean of 3 replicates.

[2] = test system: HμRELhumanPool 96-well hepatic co-culture; assay: Hμrel Low Clearance Assay; type: in vitro ADME, human; set-up: % of Control (intrinsic clearance relative to the control compound): tested at 1 µM; details: for Half-Life: human hepatic co-culture, 1 μM substrate, 0-72 hr incubation; for % of Control (intrinsic clearance relative to the control compound): observed CLint divided by average CLint of undeuterated control compound
Protocol: (§2) The Hμrel Low Clearance Assay was performed to determine the stability of deuterated compounds described herein and calculate changes in clearance relative to the control compound (undeuterated compound) that has the following structure:
(§3) HμRELhumanPool™ 96-well hepatic co-culture plates were media changed and cells were allowed to acclimatize at 37° C. for 20 hr. HμREL® incubation media (serum free) and test compound diluted from a 1000×DMSO stock (final substrate concentration 1 μM; final DMSO concentration 0.1%) were added to the HμREL© 96-well co-culture system at a final cell number of 30,000 cells per well to initiate the reaction. The final incubation volume was 80 μL per time point and two control compounds were included for reference (ketoprofen and prednisolone). All clearance assessments were performed in singlicate with the exception of the undeuterated control compound, which was tested in duplicate on two separate days for a total of 4 replicates. Each compound was incubated for 0, 2, 6, 24, 48 and 72 hr. The reactions were terminated by transferring 60 μL of incubate to 180 μL acetonitrile containing internal standard at the appropriate time points. The crash plates were centrifuged at 3000 rpm at 4° C. for 20 min to precipitate residual protein. Following protein precipitation, sample supernatants were combined in cassettes of up to 4 compounds and analyzed using generic LCMS/MS conditions.
as §1
(§4) Average clearance of the control compound was determined by taking the geometric mean of 3 of the four replicates. The fourth replicate was excluded from the average determination as an outlier.

[3] = Hμrel Low Clearance Assay; type: in vitro ADME, human; set-up: % of Control (intrinsic clearance relative to the control compound): tested at 1 µM; details: HμRELhumanPool 96-well hepatic co-culture, human hepatic co-culture, 1 μM substrate, 0-72 hr incubation, control = geometric mean of 3 replicates
Protocol: as §2, §3, §1, §4

T1 sequence (P08684 whole entry): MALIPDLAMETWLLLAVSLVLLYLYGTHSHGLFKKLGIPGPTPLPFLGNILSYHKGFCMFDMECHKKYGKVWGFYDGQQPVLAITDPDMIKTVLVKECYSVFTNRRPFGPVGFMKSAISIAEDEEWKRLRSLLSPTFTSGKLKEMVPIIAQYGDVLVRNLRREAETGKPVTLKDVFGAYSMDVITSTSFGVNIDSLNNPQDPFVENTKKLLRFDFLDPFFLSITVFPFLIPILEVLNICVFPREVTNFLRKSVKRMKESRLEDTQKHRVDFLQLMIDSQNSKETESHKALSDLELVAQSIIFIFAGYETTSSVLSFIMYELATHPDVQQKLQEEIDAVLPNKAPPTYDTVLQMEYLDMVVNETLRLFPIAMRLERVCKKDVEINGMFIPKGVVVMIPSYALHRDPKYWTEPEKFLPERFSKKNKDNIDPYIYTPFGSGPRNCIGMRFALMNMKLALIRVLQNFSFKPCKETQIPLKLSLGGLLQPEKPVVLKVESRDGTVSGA

Structure (SMILES) | % of Control (intrinsic clearance relative to the control compound) [1] [%] | Half-Life [1] [h] | CLint [1] [µL/min/pmol] | Half-Life [2] [h] | % of Control (intrinsic clearance relative to the control compound) [2] [%] | hepatocyte CLint at 1 μM ([3]; human) [µL/min/1e6 cells] | hepatocyte CLint at 1 μM [3] [µL/min/1e6 cells]
[2H]C([2H])(C(=O)NC(C([2H])([2H])[2H])(C([2H])([2H])[2H])C([2H])([2H])[2H])N1CCC(CNC(=O)c2cc(F)cc(Cl)c2)CC1 [Compound 15, 3-chloro-N-[[1-[1,1-dideuterio-2-oxo-2-[[2,2,2-trideuterio-1,1-bis(trideuteriomethyl)ethyl]amino]ethyl]-4-piperidyl]methyl]-5-fluoro-benzamide] | 82.9 | 0.158 | 1.46 | 22.67 | 95.4 | 1.35 | –
[2H]C1([2H])CC(CNC(=O)c2cc(F)cc(Cl)c2)CC([2H])([2H])N1CC(=O)NC(C([2H])([2H])[2H])(C([2H])([2H])[2H])C([2H])([2H])[2H] [Compound 16, 3-chloro-5-fluoro-N-[[2,2,6,6-tetradeuterio-1-[2-oxo-2-[[2,2,2-trideuterio-1,1-bis(trideuteriomethyl)ethyl]amino]ethyl]-4-piperidyl]methyl]benzamide] | 61.4 | 0.213 | 1.08 | 28.33 | 76.3 | – | 1.08
[2H]C([2H])(C(=O)NC(C)(C)C([2H])([2H])[2H])N1CCC(CNC(=O)c2cc(F)cc(Cl)c2)CC1 [Compound 21, 3-chloro-N-[[1-[1,1-dideuterio-2-oxo-2-[(2,2,2-trideuterio-1,1-dimethyl-ethyl)amino]ethyl]-4-piperidyl]methyl]-5-fluoro-benzamide] | 94.4 | 0.138 | 1.66 | 21.17 | 103 | 1.46 | –
CC(C)(C)NC(=O)CN1CCC(CNC(=O)c2cc(F)cc(Cl)c2)CC1 [Control, reference compound] | 100 | 0.132 | 1.76 | 22.17 | 100 | 1.42 | –

Now from value to molecule, other results behind:

% of Control (intrinsic clearance relative to the control compound) [1] [%] | Half-Life [1] [h] | CLint [1] [µL/min/pmol] | Half-Life [2] [h] | % of Control (intrinsic clearance relative to the control compound) [2] [%] | hepatocyte CLint at 1 μM ([3]; human) [µL/min/1e6 cells] | Structure (SMILES) | hepatocyte CLint at 1 μM [3] [µL/min/1e6 cells]
72.2 | 0.182 | 1.27 | 26.17 | 83.4 | 1.18 | [2H]C([2H])(C(=O)NC(C)(C([2H])([2H])[2H])C([2H])([2H])[2H])N1CCC(CNC(=O)c2cc(F)cc(Cl)c2)CC1 [Compound 17, 3-chloro-N-[[1-[1,1-dideuterio-2-oxo-2-[[2,2,2-trideuterio-1-methyl-1-(trideuteriomethyl)ethyl]amino]ethyl]-4-piperidyl]methyl]-5-fluoro-benzamide] | –
62.2 | 0.212 | 1.09 | 43 | 51.5 | 0.718 | [2H]C1([2H])CC(CNC(=O)c2cc(F)cc(Cl)c2)CC([2H])([2H])N1CC(=O)NC(C)(C([2H])([2H])[2H])C([2H])([2H])[2H] [Compound 19, 3-chloro-5-fluoro-N-[[2,2,6,6-tetradeuterio-1-[2-oxo-2-[[2,2,2-trideuterio-1-methyl-1-(trideuteriomethyl)ethyl]amino]ethyl]-4-piperidyl]methyl]benzamide] | –
61.5 | 0.213 | 1.08 | 38.33 | 56.7 | 0.803 | [2H]C([2H])([2H])C(C)(NC(=O)CN1C([2H])([2H])C([2H])([2H])C([2H])(CNC(=O)c2cc(F)cc(Cl)c2)C([2H])([2H])C1([2H])[2H])C([2H])([2H])[2H] [Compound 20, 3-chloro-5-fluoro-N-[[2,2,3,3,4,5,5,6,6-nonadeuterio-1-[2-oxo-2-[[2,2,2-trideuterio-1-methyl-1-(trideuteriomethyl)ethyl]amino]ethyl]-4-piperidyl]methyl]benzamide] | –
87.5 | 0.15 | 1.54 | 35.33 | 62.6 | 0.872 | [2H]C1([2H])CC(CNC(=O)c2cc(F)cc(Cl)c2)CC([2H])([2H])N1CC(=O)NC(C)(C)C([2H])([2H])[2H] [Compound 22, 3-chloro-5-fluoro-N-[[2,2,6,6-tetradeuterio-1-[2-oxo-2-[(2,2,2-trideuterio-1,1-dimethyl-ethyl)amino]ethyl]-4-piperidyl]methyl]benzamide] | –
86.2 | 0.152 | 1.52 | 34 | 65.2 | 0.908 | [2H]C1([2H])CN(CC(=O)NC(C)(C([2H])([2H])[2H])C([2H])([2H])[2H])CC([2H])([2H])C1CNC(=O)c1cc(F)cc(Cl)c1 [Compound 23, 3-chloro-5-fluoro-N-[[3,3,5,5-tetradeuterio-1-[2-oxo-2-[[2,2,2-trideuterio-1-methyl-1-(trideuteriomethyl)ethyl]amino]ethyl]-4-piperidyl]methyl]benzamide] | –
